According to patent US11311590B2, “Anti-inflammatory botanical extract” (Innophos, Inc., priority 2018, dated 2022):

System: potato 5-Lipoxygenase enzyme
Assay: Lipoxygenase Inhibitor Screening Assay Kit (Cayman) with potato 5-Lipoxygenase
Assay type: biochemical
Settings: positive control at 100 μM
Experimental: Research grade reagents were used for the rest of the assay preparations. Extracts were dissolved in dimethyl sulfoxide (‘DMSO’) to a final concentration of 50 mg/mL, and then diluted in appropriate buffer for each bioassay to working concentrations.
This kit measures hydroperoxides produced in the lipoxygenation reaction.
The extracts were dissolved in methanol to final working concentrations. 5-LOX enzyme, Chromagen, and Linoleic Acid solutions were prepared immediately before use. Nordihydroguaiaretic acid (‘NDGA’) was used as a positive control. 5-LOX enzyme was added to the test samples and controls and incubated for five minutes at room temperature to allow for enzyme/inhibitor interaction. Linoleic acid substrate was added to the plate to initiate the reaction, and the plate was then shaken at room temperature for 10 minutes. Chromagen was added to visualize the hydroperoxides formed during the reaction and the plate was shaken at room temperature for another five minutes. The absorbance was then read at 492 nm. Percent inhibition of the extract concentration was calculated in comparison to the uninhibited control wells.

## CC(Cc1ccc(O)c(O)c1)C(C)Cc1ccc(O)c(O)c1 (stereo not shown) [NDGA, Nordihydroguaiaretic acid]
  5-LOX enzyme inhibition: 100%
